Data as given in ChEMBL document CHEMBL5375992, “Design and Development of IKZF2 and CK1α Dual Degraders” (J Med Chem, 2023).
Converted amounts (≈) assume the structure as drawn. The source made the active and inactive calls. The rule behind the calls is not given here.

How the values were obtained:
OCI-Ly3 [1] = experiment: Upregulation of Bax protein expression in human OCILY3 cells at […] incubated for 24 hrs by Western blot analysis; type: functional, cell-based
OCI-Ly3 [2] = experiment: Cytotoxicity against human OCILY3 cells incubated for 5 days by MTT assay; type: functional, cell-based; details: OCI-Ly3, 120 h
[3] = target: T1, Protein cereblon/Eukaryotic peptide chain release factor GTP-binding subunit ERF3A (Homo sapiens) (UniProt Q96SW2+P15170); experiment: Protac activity at CRBN/GSPT1 in human OCILY3 cells assessed as relative ratio at 10 nM incubated for 24 hrs by Western blotting analysis relative to DMSO; type: cell-based
[4] = target: T2, Cereblon/Casein kinase I alpha (Homo sapiens) (UniProt P48729+Q96SW2); experiment: Protac activity at CRBN/CK1alpha in human A2780 cells assessed as relative ratio at 1 nM incubated for 24 hrs by Western blotting analysis relative to DMSO; type: cell-based
[5] = target: T3, Protein cereblon/Zinc finger protein Helios (Homo sapiens) (UniProt Q96SW2+Q9UKS7); experiment: Protac activity at CRBN/IKZF2 in human A2780 cells assessed as relative ratio at 10 uM incubated for 24 hrs by Western blotting analysis relative to DMSO; type: cell-based
OCI-Ly3 [6] = experiment: Upregulation of p21 transcript level in human OCILY3 cells at 1 uM incubated for 24 hrs by RT-qPCR analysis; type: functional, cell-based
OCI-Ly3 [7] = experiment: Upregulation of p53 protein expression in human OCILY3 cells at […] incubated for 24 hrs by Western blot analysis; type: functional, cell-based
OCI-Ly3 [8] = experiment: Upregulation of MDM2 protein expression in human OCILY3 cells at […] incubated for 24 hrs by Western blot analysis; type: functional, cell-based
[9] = target: T2, Cereblon/Casein kinase I alpha (Homo sapiens); experiment: Protac activity at CRBN/CK1alpha in human A2780 cells assessed as relative ratio at 10 uM incubated for 24 hrs by Western blotting analysis relative to DMSO; type: cell-based
[10] = Solubility of compound in DMSO; type: physicochemical; details: DMSO; read-out: solubility
[11] = target: T1, Protein cereblon/Eukaryotic peptide chain release factor GTP-binding subunit ERF3A (Homo sapiens); experiment: Protac activity at CRBN/GSPT1 in human OCILY3 cells assessed as relative ratio at 100 nM incubated for 24 hrs by Western blotting analysis relative to DMSO; type: cell-based
[12] = target: T2, Cereblon/Casein kinase I alpha (Homo sapiens); experiment: Protac activity at CRBN/CK1alpha in human OCILY3 cells assessed as relative ratio at 10 nM incubated for 24 hrs by Western blotting analysis relative to DMSO; type: cell-based
[13] = target: T2, Cereblon/Casein kinase I alpha (Homo sapiens); experiment: Protac activity at CRBN/CK1alpha in human OCILY3 cells assessed as relative ratio at 100 nM incubated for 24 hrs by Western blotting analysis relative to DMSO; type: cell-based
[14] = target: T1, Protein cereblon/Eukaryotic peptide chain release factor GTP-binding subunit ERF3A (Homo sapiens); experiment: Protac activity at CRBN/GSPT1 in human OCILY3 cells assessed as relative ratio at 10 uM incubated for 24 hrs by Western blotting analysis relative to DMSO; type: cell-based
[15] = target: T2, Cereblon/Casein kinase I alpha (Homo sapiens); experiment: Protac activity at CRBN/CK1alpha in human MOLM-13 cells at 50 nM incubated for 2 hrs by proteomic analysis; type: cell-based
[16] = target: T1, Protein cereblon/Eukaryotic peptide chain release factor GTP-binding subunit ERF3A (Homo sapiens); experiment: Protac activity at CRBN/GSPT1 in human A2780 cells assessed as relative ratio at 100 nM incubated for 24 hrs by Western blotting analysis relative to DMSO; type: cell-based
A2780 [17] = experiment: Upregulation of p53 protein expression in human A2780 cells at […] incubated for 24 hrs by Western blot analysis; type: functional, cell-based
[18] = target: T1, Protein cereblon/Eukaryotic peptide chain release factor GTP-binding subunit ERF3A (Homo sapiens); experiment: Protac activity at CRBN/GSPT1 in human A2780 cells assessed as relative ratio at 1 nM incubated for 24 hrs by Western blotting analysis relative to DMSO; type: cell-based
OCI-Ly3 [19] = experiment: Upregulation of Bax transcript level in human OCILY3 cells at 1 uM incubated for 24 hrs by RT-qPCR analysis; type: functional, cell-based
[20] = target: T1, Protein cereblon/Eukaryotic peptide chain release factor GTP-binding subunit ERF3A (Homo sapiens); experiment: Protac activity at CRBN/GSPT1 in human NCI-H1048 cells at 10 to 100 nM incubated for 24 hrs by Western blotting analysis; type: cell-based; details: dose 10-100 nM
[21] = target: T2, Cereblon/Casein kinase I alpha (Homo sapiens); experiment: Protac activity at CRBN/CK1alpha in human A2780 cells assessed as relative ratio at 1 uM incubated for 24 hrs by Western blotting analysis relative to DMSO; type: cell-based
[22] = target: T1, Protein cereblon/Eukaryotic peptide chain release factor GTP-binding subunit ERF3A (Homo sapiens); experiment: Protac activity at CRBN/GSPT1 (unknown origin) transfected in HEK293T cells at 100 nM incubated for 24 hrs by flow cytometry analysis relative to control; type: cell-based
A2780 [23] = experiment: Upregulation of p21 transcript level in human A2780 cells at 1 uM incubated for 24 hrs by RT-qPCR analysis; type: functional, cell-based
A2780 [24] = experiment: Upregulation of MDM2 protein expression in human A2780 cells at […] incubated for 24 hrs by Western blot analysis; type: functional, cell-based
[25] = target: Cereblon/Ikaros (Homo sapiens) (UniProt Q96SW2+Q13422); experiment: Protac activity at CRBN/IKZF1 (unknown origin) transfected in HEK293T cells at 100 nM incubated for 24 hrs by flow cytometry analysis relative to control; type: cell-based
[26] = target: T3, Protein cereblon/Zinc finger protein Helios (Homo sapiens); experiment: Protac activity at CRBN/IKZF2 in human A2780 cells assessed as relative ratio at 10 nM incubated for 24 hrs by Western blotting analysis relative to DMSO; type: cell-based
[27] = target: T2, Cereblon/Casein kinase I alpha (Homo sapiens); experiment: Protac activity at CRBN/CK1alpha in human OCILY3 cells assessed as relative ratio at 1 uM incubated for 24 hrs by Western blotting analysis relative to DMSO; type: cell-based
[28] = target: T3, Protein cereblon/Zinc finger protein Helios (Homo sapiens); experiment: Protac activity at CRBN/IKZF2 in human A2780 cells assessed as relative ratio at 100 nM incubated for 24 hrs by Western blotting analysis relative to DMSO; type: cell-based
OCI-Ly3 [29] = experiment: Upregulation of p21 protein expression in human OCILY3 cells at […] incubated for 24 hrs by Western blot analysis; type: functional, cell-based
A2780 [30] = experiment: Upregulation of Bax protein expression in human A2780 cells at […] incubated for 24 hrs by Western blot analysis; type: functional, cell-based
[31] = target: T2, Cereblon/Casein kinase I alpha (Homo sapiens); experiment: Protac activity at CRBN/CK1alpha in human A2780 cells assessed as relative ratio at 100 nM incubated for 24 hrs by Western blotting analysis relative to DMSO; type: cell-based
[32] = target: T1, Protein cereblon/Eukaryotic peptide chain release factor GTP-binding subunit ERF3A (Homo sapiens); experiment: Protac activity at CRBN/GSPT1 in human A2780 cells assessed as relative ratio at 10 nM incubated for 24 hrs by Western blotting analysis relative to DMSO; type: cell-based
A2780 [33] = experiment: Cytotoxicity against human A2780 cells incubated for 5 days by MTT assay; type: functional, cell-based; details: A2780, 120 h
[34] = target: T2, Cereblon/Casein kinase I alpha (Homo sapiens); experiment: Protac activity at CRBN/CK1alpha (unknown origin) transfected in HEK293T cells at 100 nM incubated for 24 hrs by flow cytometry analysis relative to control; type: cell-based
[35] = target: T1, Protein cereblon/Eukaryotic peptide chain release factor GTP-binding subunit ERF3A (Homo sapiens); experiment: Protac activity at CRBN/GSPT1 in human A2780 cells assessed as relative ratio at 1 uM incubated for 24 hrs by Western blotting analysis relative to DMSO; type: cell-based
[36] = target: T1, Protein cereblon/Eukaryotic peptide chain release factor GTP-binding subunit ERF3A (Homo sapiens); experiment: Protac activity at CRBN/GSPT1 in human A2780 cells assessed as relative ratio at 10 uM incubated for 24 hrs by Western blotting analysis relative to DMSO; type: cell-based
[37] = target: T2, Cereblon/Casein kinase I alpha (Homo sapiens); experiment: Protac activity at CRBN/CK1alpha in human A2780 cells assessed as relative ratio at 10 nM incubated for 24 hrs by Western blotting analysis relative to DMSO; type: cell-based
[38] = target: T2, Cereblon/Casein kinase I alpha (Homo sapiens); experiment: Protac activity at CRBN/CK1alpha in human OCILY3 cells assessed as relative ratio at 1 nM incubated for 24 hrs by Western blotting analysis relative to DMSO; type: cell-based
[39] = target: T3, Protein cereblon/Zinc finger protein Helios (Homo sapiens); experiment: Protac activity at CRBN/IKZF2 in human A2780 cells assessed as relative ratio at 1 nM incubated for 24 hrs by Western blotting analysis relative to DMSO; type: cell-based
A2780 [40] = experiment: Upregulation of p21 protein expression in human A2780 cells at […] incubated for 24 hrs by Western blot analysis; type: functional, cell-based
[41] = target: T1, Protein cereblon/Eukaryotic peptide chain release factor GTP-binding subunit ERF3A (Homo sapiens); experiment: Protac activity at CRBN/GSPT1 in human OCILY3 cells assessed as relative ratio at 1 nM incubated for 24 hrs by Western blotting analysis relative to DMSO; type: cell-based
[42] = target: T3, Protein cereblon/Zinc finger protein Helios (Homo sapiens); experiment: Protac activity at CRBN/IKZF2 in human A2780 cells assessed as relative ratio at 1 uM incubated for 24 hrs by Western blotting analysis relative to DMSO; type: cell-based
[43] = target: T2, Cereblon/Casein kinase I alpha (Homo sapiens); experiment: Protac activity at CRBN/CK1alpha in human OCILY3 cells assessed as relative ratio at 10 uM incubated for 24 hrs by Western blotting analysis relative to DMSO; type: cell-based
A2780 [44] = experiment: Upregulation of Bax transcript level in human A2780 cells at 1 uM incubated for 24 hrs by RT-qPCR analysis; type: functional, cell-based
[45] = target: T1, Protein cereblon/Eukaryotic peptide chain release factor GTP-binding subunit ERF3A (Homo sapiens); experiment: Protac activity at CRBN/GSPT1 in human OCILY3 cells assessed as relative ratio at 1 uM incubated for 24 hrs by Western blotting analysis relative to DMSO; type: cell-based
[46] = target: T3, Protein cereblon/Zinc finger protein Helios (Homo sapiens); experiment: Protac activity at CRBN/IKZF2 (unknown origin) transfected in HEK293T cells at 100 nM incubated for 24 hrs by flow cytometry analysis relative to control; type: cell-based

T1 sequence (P15170 whole entry, looked up): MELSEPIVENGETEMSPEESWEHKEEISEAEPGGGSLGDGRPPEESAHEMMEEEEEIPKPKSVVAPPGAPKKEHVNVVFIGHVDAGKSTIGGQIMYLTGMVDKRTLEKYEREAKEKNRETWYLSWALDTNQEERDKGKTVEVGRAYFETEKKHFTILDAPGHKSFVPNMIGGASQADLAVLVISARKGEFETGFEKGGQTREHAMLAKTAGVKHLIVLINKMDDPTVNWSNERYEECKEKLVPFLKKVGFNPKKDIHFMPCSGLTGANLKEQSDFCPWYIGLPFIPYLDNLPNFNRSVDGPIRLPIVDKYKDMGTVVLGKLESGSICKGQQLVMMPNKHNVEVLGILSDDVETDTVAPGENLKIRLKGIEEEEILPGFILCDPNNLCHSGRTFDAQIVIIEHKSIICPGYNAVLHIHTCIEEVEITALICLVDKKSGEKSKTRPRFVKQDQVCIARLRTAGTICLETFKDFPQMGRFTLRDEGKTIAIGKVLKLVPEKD
T1 sequence (Q96SW2 whole entry, looked up): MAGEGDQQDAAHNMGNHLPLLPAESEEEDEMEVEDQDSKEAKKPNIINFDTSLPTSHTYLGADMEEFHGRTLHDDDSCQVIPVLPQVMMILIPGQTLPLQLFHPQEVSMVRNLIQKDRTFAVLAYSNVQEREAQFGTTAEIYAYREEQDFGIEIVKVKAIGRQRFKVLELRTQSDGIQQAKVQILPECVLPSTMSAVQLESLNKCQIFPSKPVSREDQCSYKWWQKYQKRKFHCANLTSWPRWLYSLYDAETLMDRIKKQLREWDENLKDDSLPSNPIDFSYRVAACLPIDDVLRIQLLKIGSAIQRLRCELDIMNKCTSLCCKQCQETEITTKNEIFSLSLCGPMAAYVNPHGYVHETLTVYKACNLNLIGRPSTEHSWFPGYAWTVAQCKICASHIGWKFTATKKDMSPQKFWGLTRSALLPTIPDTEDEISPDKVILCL
T2 sequence (P48729 2-337 limits assumed): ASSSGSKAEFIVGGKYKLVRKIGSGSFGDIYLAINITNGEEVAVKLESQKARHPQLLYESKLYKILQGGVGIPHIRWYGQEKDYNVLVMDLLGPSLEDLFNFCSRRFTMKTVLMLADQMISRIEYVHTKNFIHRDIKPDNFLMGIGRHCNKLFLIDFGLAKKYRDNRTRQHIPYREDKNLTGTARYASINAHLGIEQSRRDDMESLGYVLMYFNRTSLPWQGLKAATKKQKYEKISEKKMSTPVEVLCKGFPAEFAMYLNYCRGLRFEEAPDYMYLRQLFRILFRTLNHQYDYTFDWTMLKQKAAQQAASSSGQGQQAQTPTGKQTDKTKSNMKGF
T2 sequence (Q96SW2 whole entry partner): as the sequence (Q96SW2 whole entry, looked up) above
T3 sequence (Q96SW2 whole entry, looked up): as above
T3 sequence (Q9UKS7 whole entry, looked up): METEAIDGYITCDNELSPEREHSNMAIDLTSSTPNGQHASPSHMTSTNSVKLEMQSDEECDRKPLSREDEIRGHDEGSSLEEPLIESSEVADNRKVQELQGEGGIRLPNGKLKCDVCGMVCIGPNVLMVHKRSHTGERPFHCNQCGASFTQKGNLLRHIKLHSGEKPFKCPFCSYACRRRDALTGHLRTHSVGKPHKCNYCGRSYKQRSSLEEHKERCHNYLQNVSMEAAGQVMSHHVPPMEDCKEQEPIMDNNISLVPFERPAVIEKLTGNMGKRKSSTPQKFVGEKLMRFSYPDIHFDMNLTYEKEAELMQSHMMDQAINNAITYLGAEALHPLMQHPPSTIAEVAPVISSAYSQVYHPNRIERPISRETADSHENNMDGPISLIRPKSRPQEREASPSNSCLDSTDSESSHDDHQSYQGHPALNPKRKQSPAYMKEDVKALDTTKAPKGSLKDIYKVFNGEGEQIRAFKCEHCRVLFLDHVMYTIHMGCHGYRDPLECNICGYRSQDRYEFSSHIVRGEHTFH

- Ratio [3]: 0.67
- Ratio [4]: 0.5
- Ratio [5]: 0.06
- Ratio [9]: 0.17
- solubility [10]: 50 mM (≈ 22.4 mg/mL)
- Ratio [11]: 0.65
- Ratio [12]: 0.28
- Ratio [13]: 0.25
- Ratio [14]: 0.8
- Activity [15]: Active
- Ratio [16]: 0.9
- Ratio [18]: 0.96
- Activity [20]: inactive
- Ratio [21]: 0.17
- Activity [22]: 4%
- Activity [25]: 11%
- Ratio [26]: 0.77
- Ratio [27]: 0.26
- Ratio [28]: 0.24
- Ratio [31]: 0.18
- Ratio [32]: 0.9
- Activity [34]: 80%
- Ratio [35]: 1
- Ratio [36]: 1
- Ratio [37]: 0.22
- Ratio [38]: 0.63
- Ratio [39]: 1
- Ratio [41]: 0.83
- Ratio [42]: 0.08
- Ratio [43]: 0.27
- Ratio [45]: 0.73
- Activity [46]: 82%
Compound: COc1cccc2c1OCC(C(=O)Nc1ccc3c(c1)CN(C1CCC(=O)NC1=O)C3=O)=C2 (stereo unspecified)
- Activity (OCI-Ly3 [1]): Active
- EC50 (OCI-Ly3 [2]): 14 nM
- Activity (OCI-Ly3 [6]): Active
- Activity (OCI-Ly3 [7]): Active
- Activity (OCI-Ly3 [8]): Active
- Activity (A2780 [17]): Active
- Activity (OCI-Ly3 [19]): Active
- Activity (A2780 [23]): Active
- Activity (A2780 [24]): Active
- Activity (OCI-Ly3 [29]): Active
- Activity (A2780 [30]): Active
- EC50 (A2780 [33]): 27 nM
- Activity (A2780 [40]): Active
- Activity (A2780 [44]): Active
